Results from publication PMC10223019, “Preclinical Evaluation of a PSMA-Targeting Homodimer with an Optimized Linker for Imaging of Prostate Cancer” (Molecules, 2023).

Experiments:
[1] = system: BALB/c nude mice bearing LS174T PSMA-positive tumor xenografts; assay: Ex vivo biodistribution studies; type: in vivo
Method: Animal experiments were performed in 8–10 weeks old male BALB/c nude mice (Janvier Labs, Le Genest-Saint-Isle, France). Animals were housed in individually ventilated cages (Blue line IVC, 4 mice per cage) under nonsterile standard conditions with cage enrichment present and free access to chlorophyll-free animal chow (Sniff GmbH, Soest, Germany) and water and acclimated for 1 week before experiments. Mice were subcutaneously inoculated with 4.0 × 10^6 LS174T cells in the right flank, diluted in 100 μL of cell suspension. Seven days after tumor cell inoculation, when xenografts were approximately 0.2–0.3 cm^3, the tracers were injected intravenously via the tail vein. All experiments were approved by the institutional Animal Welfare Committee and were conducted in accordance with the guidelines of the Revised Dutch Act on Animal Experimentation (WOD).
Mice were intravenously injected with ~1 nmol of either [^111In]In-PSMA-617, [^111In]In-22 or [^111In]In-30 with molar activity of 5 MBq/nmol for ex vivo biodistribution studies. Mice (n = 4/timepoint) were euthanized by cervical dislocation at 1, 4, and 24 h p.i. A block group was included, and mice were euthanized at 4 h p.i. Organs were collected in tubes and counted in the gamma counter, where the calibration factor was determined by measuring different known activities of indium-111.

[2] = Stability in mouse serum, radio-HPLC; type: in vitro ADME
Method: [^111In]In-22 or [^111In]In-30 (~35 MBq, 70 µL) was mixed with 330 μL of mouse serum and incubated at 37 °C for up to 24 h. After 1, 4, and 24 h incubation, 50 μL of the mouse serum solution was added to a separate vial containing 50 µL of acetonitrile. The sample was centrifuged at 5000× g for 20 min. The supernatant was analyzed by radio-HPLC.

[3] = LogD7.4 by shake-flask method (PBS/n-octanol); type: physicochemical; conditions: LogD7.4, PBS pH 7.4/n-octanol, indium-111 labeled compound
Method: The distribution coefficients (LogD7.4 values) were determined by a shake-flask method, in which 2 μL (~0.5 MBq) of the labeling solution ([^111In]In-22 or [^111In]In-30) were added to an Eppendorf tube containing 1 mL of PBS (0.01 M, pH 7.4)/n-octanol (v/v, 1:1). After vigorous vortexing, the solution was centrifuged at 2500× g for 15 min for phase separation. Samples (3 × 10 μL) of the two phases were taken out and measured in a gamma counter. LogD7.4 values were calculated by using the following equation: LogD7.4 = log [(counts in octanol phase)/(counts in aqueous phase)] and the experiment was performed in triplicate.

[4] = Stability in phosphate-buffered saline (PBS), radio-HPLC; type: physicochemical; conditions: 24 h post-incubation, 37 °C, indium-111 labeled, intact fraction
Method: [^111In]In-22 or [^111In]In-30 (~10 MBq, 20 µL) was mixed with 80 μL of PBS (0.01 M, pH 7.4) and incubated at 37 °C for up to 24 h. A sample of the PBS solution was loaded directly onto the radio-HPLC at 1, 4, and 24 h post-incubation.

[5] = system: PSMA expressing LS174T cells; assay: Internalization and cell uptake assay; type: cell-based, human; conditions: 2 h 37 °C
Method: LS174T human colon carcinoma cells transfected with human PSMA were obtained from Dr. Sandra Heskamp (Radboud UMC, Nijmegen). Cells were cultured in RPMI-1640 media supplemented with 2 mM glutamine, 10% fetal bovine serum (FBS) and 0.3 mg/mL G418 (Geneticin, Sigma Aldrich, St. Louis, MO, USA).
Cells were seeded (1.2 × 10^6 cells/well) and cultured to confluency for 24 h prior to experiments. We prepared 10^−9 M solutions of [^111In]In-PSMA-617, [^111In]In-22, and [^111In]In-30 in internalization media (RPMI, 20 mM HEPES, 1% BSA, pH 7.4). The media were removed from each well, and they were rinsed twice with PBS at rt. 2 mL of the radioactive compound was then added to each well and incubated at 37 °C for 2 h. For the internalization assay, the media containing radioactive compound were removed, and each well was washed twice with cold PBS. A total of 1 mL of Glycine buffer (50 mM glycine, 100 mM NaCl, pH 2.8) was added immediately and incubated for 10 min at rt. The glycine wash was then collected into counting tubes (membrane-bound fraction). An extra wash was performed and collected in the same tubes. A total of 1 mL of NaOH (1 M) was then added to each tube and left for 15 min at rt. The lysate (internalized fraction) was then collected in separate counting tubes, together with one extra NaOH wash. Data were normalized to 1,000,000 cells and percentage added dose.

[6] = 4 h p.i. block group (excess unlabeled PSMA ligand)

Tumor-to-muscle (T/M) ratio ([1]; 1 h p.i.): 31
Blood uptake ([1]; 1 h p.i., i.v. ~1 nmol): 0.14 ± 0.01 % ID/g
Bone uptake ([1]; 1 h p.i., i.v. ~1 nmol): 0.20 ± 0.01 % ID/g
Heart uptake ([1]; 1 h p.i., i.v. ~1 nmol): 0.13 ± 0.05 % ID/g
Intestines uptake ([1]; 1 h p.i., i.v. ~1 nmol): 0.26 ± 0.17 % ID/g
Kidney uptake ([1]; 1 h p.i., i.v. ~1 nmol): 22.56 ± 2.59 % ID/g
Liver uptake ([1]; 1 h p.i., i.v. ~1 nmol): 0.17 ± 0.03 % ID/g
Lung uptake ([1]; 1 h p.i., i.v. ~1 nmol): 0.45 ± 0.07 % ID/g
Muscle uptake ([1]; 1 h p.i., i.v. ~1 nmol): 0.07 ± 0.01 % ID/g
Pancreas uptake ([1]; 1 h p.i., i.v. ~1 nmol): 0.22 ± 0.03 % ID/g
Prostate uptake ([1]; 1 h p.i., i.v. ~1 nmol): 0.51 ± 0.25 % ID/g
Skin uptake ([1]; 1 h p.i., i.v. ~1 nmol): 0.44 ± 0.16 % ID/g
Spleen uptake ([1]; 1 h p.i., i.v. ~1 nmol): 1.82 ± 0.37 % ID/g
Stomach uptake ([1]; 1 h p.i., i.v. ~1 nmol): 0.11 ± 0.01 % ID/g
Tumor uptake ([1]; 1 h p.i., i.v. ~1 nmol): 2.05 ± 0.52 % ID/g
Tumor-to-muscle (T/M) ratio ([1]; 4 h p.i.): 48
Blood uptake [1, 6]: 0.02 ± 0.00 % ID/g
Bone uptake [1, 6]: 0.23 ± 0.13 % ID/g
Heart uptake [1, 6]: 0.04 ± 0.01 % ID/g
Intestines uptake [1, 6]: 0.27 ± 0.03 % ID/g
Kidney uptake [1, 6]: 8.20 ± 0.67 % ID/g
Liver uptake [1, 6]: 0.09 ± 0.00 % ID/g
Lung uptake [1, 6]: 0.09 ± 0.01 % ID/g
Muscle uptake [1, 6]: 0.03 ± 0.01 % ID/g
Pancreas uptake [1, 6]: 0.04 ± 0.01 % ID/g
Prostate uptake [1, 6]: 0.09 ± 0.01 % ID/g
Skin uptake [1, 6]: 0.24 ± 0.07 % ID/g
Spleen uptake [1, 6]: 0.09 ± 0.00 % ID/g
Stomach uptake [1, 6]: 0.17 ± 0.13 % ID/g
Tumor uptake [1, 6]: 0.27 ± 0.14 % ID/g
Blood uptake ([1]; 4 h p.i., i.v. ~1 nmol): 0.02 ± 0.01 % ID/g
Bone uptake ([1]; 4 h p.i., i.v. ~1 nmol): 0.11 ± 0.06 % ID/g
Heart uptake ([1]; 4 h p.i., i.v. ~1 nmol): 0.04 ± 0.01 % ID/g
Intestines uptake ([1]; 4 h p.i., i.v. ~1 nmol): 0.30 ± 0.05 % ID/g
Kidney uptake ([1]; 4 h p.i., i.v. ~1 nmol): 13.55 ± 1.04 % ID/g
Liver uptake ([1]; 4 h p.i., i.v. ~1 nmol): 0.10 ± 0.01 % ID/g
Lung uptake ([1]; 4 h p.i., i.v. ~1 nmol): 0.12 ± 0.03 % ID/g
Muscle uptake ([1]; 4 h p.i., i.v. ~1 nmol): 0.03 ± 0.02 % ID/g
Pancreas uptake ([1]; 4 h p.i., i.v. ~1 nmol): 0.06 ± 0.03 % ID/g
Prostate uptake ([1]; 4 h p.i., i.v. ~1 nmol): 0.18 ± 0.17 % ID/g
Skin uptake ([1]; 4 h p.i., i.v. ~1 nmol): 0.24 ± 0.18 % ID/g
Spleen uptake ([1]; 4 h p.i., i.v. ~1 nmol): 0.30 ± 0.09 % ID/g
Stomach uptake ([1]; 4 h p.i., i.v. ~1 nmol): 0.09 ± 0.06 % ID/g
Tumor uptake ([1]; 4 h p.i., i.v. ~1 nmol): 1.23 ± 0.59 % ID/g
Tumor-to-muscle (T/M) ratio ([1]; 24 h p.i.): 14
Bone uptake ([1]; 24 h p.i., i.v. ~1 nmol): 0.13 ± 0.04 % ID/g
Heart uptake ([1]; 24 h p.i., i.v. ~1 nmol): 0.03 ± 0.01 % ID/g
Intestines uptake ([1]; 24 h p.i., i.v. ~1 nmol): 0.04 ± 0.02 % ID/g
Kidney uptake ([1]; 24 h p.i., i.v. ~1 nmol): 5.89 ± 1.49 % ID/g
Liver uptake ([1]; 24 h p.i., i.v. ~1 nmol): 0.06 ± 0.01 % ID/g
Lung uptake ([1]; 24 h p.i., i.v. ~1 nmol): 0.05 ± 0.01 % ID/g
Muscle uptake ([1]; 24 h p.i., i.v. ~1 nmol): 0.03 ± 0.00 % ID/g
Pancreas uptake ([1]; 24 h p.i., i.v. ~1 nmol): 0.03 ± 0.01 % ID/g
Prostate uptake ([1]; 24 h p.i., i.v. ~1 nmol): 0.08 ± 0.03 % ID/g
Skin uptake ([1]; 24 h p.i., i.v. ~1 nmol): 0.15 ± 0.01 % ID/g
Spleen uptake ([1]; 24 h p.i., i.v. ~1 nmol): 0.09 ± 0.02 % ID/g
Stomach uptake ([1]; 24 h p.i., i.v. ~1 nmol): 0.02 ± 0.01 % ID/g
Tumor uptake ([1]; 24 h p.i., i.v. ~1 nmol): 0.61 ± 0.40 % ID/g
Tumor uptake ([1]; 24 h p.i., i.v. ~1 nmol, listed as [111In]In-22): 0.41 ± 0.08 % ID/g
Stability in Mouse Serum (%) ([2]; 24 h post-incubation, 37 °C, indium-111 labeled, intact fraction): 95.1%
Proteolytic degradation ([2]; mouse serum up to 24 h): No proteolytic degradation
logD [3]: −3.26 ± 0.05
Stability in PBS (%) [4]: 95.4%
Compound: CC(C)C[C@H](NC(=O)[C@H](Cc1ccccc1)NC(=O)[C@H](CC(=O)O)NC(=O)CCC(C(=O)O)N1CCN(CC(=O)[O-])CCN(CC(=O)[O-])CCN(CC(=O)[O-])CC1)[C@@H](O)CC(=O)NCCCCCC(=O)NCCCC[C@H](NC(=O)N[C@@H](CCC(=O)O)C(=O)O)C(=O)O.[111In+3] (stereo partly drawn) [[^111In]In-22]
Internalized fraction ([5]; 10^-9 M, NaOH lysate): 0.53 ± 0.08 % AD
Membrane-bound uptake ([5]; 10^-9 M, glycine wash): 1.02 ± 0.15 % AD
Total uptake ([5]; 10^-9 M, normalized to 1,000,000 cells): 1.55 ± 0.21 % AD
Internalized fraction as share of total uptake (internalization) [5]: 34.2%
Membrane-bound uptake as share of total uptake [5]: 66%
Membrane-bound uptake as share of total uptake ([5]; listed as [111In]In-22): 65.8%
